Test results taken from ChEMBL document CHEMBL1150503, “Design, synthesis and molecular modeling of 3-acylamino-2- Carboxyindole NMDA receptor glycine-site antagonists” (Bioorg Med Chem Lett, 1991).

Biological target: Glutamate receptor ionotropic, NMDA 1 (Rattus norvegicus, UniProt P35439)
Assay: Ability of compound to compete with [3H]glycine for the strychnine-insensitive NMDA receptor glycine binding sites on rat cortical and hippocampus
Format: tissue-based

Row | Structure (SMILES) | IC50 [nM]
1 | O=C(O)c1cc(O)c2c(Cl)cc(Cl)cc2n1 | 140
2 | O=C(O)CN(C(=O)c1ccccc1)c1c(C(=O)O)[nH]c2cc(Cl)cc(Cl)c12 | 400
3 | CN(C(=O)C(=O)O)c1c(C(=O)O)[nH]c2cc(Cl)cc(Cl)c12 | 9500
4 | O=C(O)C(=O)Nc1c(C(=O)O)[nH]c2cc(Cl)cc(Cl)c12 | 170
5 | O=C(O)CSc1c(C(=O)O)[nH]c2cc(Cl)cc(Cl)c12 | 100
6 | O=C(Nc1c(C(=O)O)[nH]c2cc(Cl)cc(Cl)c12)c1ccccc1 | 17000
7 | CN(C(=O)c1ccccc1)c1c(C(=O)O)[nH]c2cc(Cl)ccc12 | 110
8 | CN(C(=O)c1ccccc1)c1c(C(=O)O)[nH]c2cc(Cl)cc(Cl)c12 | 270
9 | O=C(Nc1c(C(=O)O)[nH]c2cc(Cl)ccc12)c1ccccc1 | 3000
